Our source for the Bliss interaction score values is the supplement of paper PMC10627819.

What all share (assay): Bliss interaction score (quartile over a dose matrix) (fitness difference); higher = more antagonism (negative = synergy)
One experiment deals with S. aureus Newman. In short, it runs like this: (§1)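 Fitness was derived from optical density at entry into stationary phase, divided by the robust mean of the no-drug wells on the same plate. That reading was taken as OD595, and the ratio was capped at 1. Single-drug fitness was inferred from the combination data. The Bliss score, observed fitness minus the expected product of single-drug fitness, was summarised as quartiles over technical, biological and donor/recipient replicates.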

For the next experiment, the system named is S. pneumoniae D39V. The gist of the method: as §1
A further experiment deals with B. subtilis 168. In short, it runs like this: as §1
The test system of another experiment is S. aureus DSM 20231. The gist of the method:
as §1
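Note: first quartile when negative (synergy) and third quartile when positive (antagonism).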

Turning to `N#CC(C#N)=NNc1cccc(Cl)c1` [CCCP] + CN(N=O)C(=O)N[C@@H](C=O)[C@@H](O)[C@H](O)[C@H](O)CO [Streptozotocin], the Bliss interaction score with S. aureus Newman is -0.0707; with S. pneumoniae D39V it was 0.0737; in the experiment with B. subtilis 168, 0.0172; in the experiment on S. aureus DSM 20231, -0.0689.
Consider `N#CC(C#N)=NNc1cccc(Cl)c1` [CCCP] + CN[C@@H]1[C@H](O)[C@H](NC)[C@H]2O[C@@]3(O)C(=O)C[C@@H](C)O[C@H]3O[C@@H]2[C@H]1O [Spectinomycin], for which the Bliss interaction score in the experiment with S. aureus Newman is -0.0505; with S. pneumoniae D39V, 0.0475; in the experiment on B. subtilis 168 it was 0.0317; in the experiment with S. aureus DSM 20231, 0.0771.
`N#CC(C#N)=NNc1cccc(Cl)c1` [CCCP] + CN[C@@H]1[C@H](O[C@H]2[C@H](O[C@H]3[C@H](O)[C@@H](O)[C@H](N=C(N)N)[C@@H](O)[C@@H]3N=C(N)N)O[C@@H](C)[C@]2(O)C=O)O[C@@H](CO)[C@H](O)[C@H]1O [Streptomycin]: the Bliss interaction score with S. aureus Newman came to 0.0563; in the experiment on S. pneumoniae D39V, 0.0786; with B. subtilis 168 it was 0.48; in the experiment with S. aureus DSM 20231, 0.0501.
In the case of `N#CC(C#N)=NNc1cccc(Cl)c1` [CCCP] + CN[C@H](CC(C)C)C(=O)N[C@H]1C(=O)N[C@@H](CC(N)=O)C(=O)N[C@H]2C(=O)N[C@H]3C(=O)N[C@H](C(=O)N[C@H](C(=O)O)c4cc(O)cc(O)c4-c4cc3ccc4O)[C@H](O)c3ccc(c(Cl)c3)Oc3cc2cc(c3O[C@@H]2O[C@H](CO)[C@@H](O)[C@H](O)[C@H]2O[C@H]2C[C@](C)(N)[C@H](O)[C@H](C)O2)Oc2ccc(cc2Cl)[C@H]1O [Vancomycin], the Bliss interaction score in the experiment with S. aureus Newman is -0.0614; with S. pneumoniae D39V it was 0.0815; in the experiment on B. subtilis 168 it was 0.0489; in the experiment on S. aureus DSM 20231, 0.0309.
For the compound `N#CC(C#N)=NNc1cccc(Cl)c1` [CCCP] + CN[C@H](CC(C)C)C(=O)N[C@H]1C(=O)N[C@@H](CC(N)=O)C(=O)N[C@H]2C(=O)N[C@H]3C(=O)N[C@H](C(=O)N[C@H](C(=O)O)c4cc(O)cc(O)c4-c4cc3ccc4O)[C@H](O[C@H]3C[C@](C)(N)[C@@H](O)[C@H](C)O3)c3ccc(c(Cl)c3)Oc3cc2cc(c3O[C@@H]2O[C@H](CO)[C@@H](O)[C@H](O)[C@H]2O[C@H]2C[C@](C)(NCc3ccc(-c4ccc(Cl)cc4)cc3)[C@@H](O)[C@H](C)O2)Oc2ccc(cc2Cl)[C@H]1O [Oritavancin], the Bliss interaction score with S. aureus Newman is 0.0576; in the experiment with S. pneumoniae D39V, 0.0676; in the experiment with B. subtilis 168 it was 0.0275; in the experiment with S. aureus DSM 20231, -0.0305.
For `N#CC(C#N)=NNc1cccc(Cl)c1` [CCCP] + CO/N=C(\C(=O)N[C@@H]1C(=O)N2C(C(=O)O)=C(COC(C)=O)CS[C@H]12)c1csc(N)n1 [Cefotaxime], the Bliss interaction score was 0.0493 in the experiment on S. aureus Newman, -0.112 with S. pneumoniae D39V, 0.139 in the experiment on B. subtilis 168 and 0.0268 in the experiment with S. aureus DSM 20231.
For `N#CC(C#N)=NNc1cccc(Cl)c1` [CCCP] + CO/N=C(\C(=O)N[C@@H]1C(=O)N2C(C(=O)O)=C(COC(N)=O)CS[C@H]12)c1ccco1 [Cefuroxime], the Bliss interaction score with S. aureus Newman was -0.112; with S. pneumoniae D39V, 0.0309; in the experiment with B. subtilis 168, 0.0873; in the experiment with S. aureus DSM 20231, -0.256.
On to `N#CC(C#N)=NNc1cccc(Cl)c1` [CCCP] + CO/N=C(\C(=O)N[C@@H]1C(=O)N2C(C(=O)[O-])=C(C[N+]3(C)CCCC3)CS[C@H]12)c1csc(N)n1 [Cefepime], for which the Bliss interaction score in the experiment with S. aureus Newman was 0.0498; with S. pneumoniae D39V it was -0.0827; in the experiment with B. subtilis 168 it was 0.0769; in the experiment on S. aureus DSM 20231, 0.1.
Consider `N#CC(C#N)=NNc1cccc(Cl)c1` [CCCP] + CO[C@@H]1[C@@H](OC(N)=O)[C@@H](O)[C@H](Oc2ccc3c(O)c(NC(=O)c4ccc(O)c(CC=C(C)C)c4)c(=O)oc3c2C)OC1(C)C [Novobiocin], for which the Bliss interaction score in the experiment with S. aureus Newman is 0.0377; with S. pneumoniae D39V it was 0.164; with B. subtilis 168, -0.144; with S. aureus DSM 20231, 0.0738.
The like results for `N#CC(C#N)=NNc1cccc(Cl)c1` [CCCP] + CO[C@@]12[C@H](COC(N)=O)C3=C(C(=O)C(C)=C(N)C3=O)N1C[C@@H]1N[C@@H]12 [MitomycinC] were, in that order, -0.0345, -0.0605, -0.051 and -0.0844.
The like results for `N#CC(C#N)=NNc1cccc(Cl)c1` [CCCP] + CO[C@H]1/C=C/O[C@@]2(C)Oc3c(C)c(O)c4c(O)c(c(/C=N/N5CCN(C)CC5)c(O)c4c3C2=O)NC(=O)/C(C)=C\C=C\[C@H](C)[C@H](O)[C@@H](C)[C@@H](O)[C@@H](C)[C@H](OC(C)=O)[C@@H]1C [Rifampicin] were, in that order, 0.0395, 0.0879, -0.0783 and 0.0329.
The like results for `N#CC(C#N)=NNc1cccc(Cl)c1` [CCCP] + COc1c(N2C[C@@H]3CCCN[C@@H]3C2)c(F)cc2c(=O)c(C(=O)O)cn(C3CC3)c12 [Moxifloxacin] were, in that order, -0.0686, 0.0433, 0.0233 and -0.0373.
With `N#CC(C#N)=NNc1cccc(Cl)c1` [CCCP] + COc1cc(Cc2cnc(N)nc2N)cc(OC)c1OC [Trimethoprim], the Bliss interaction score was -0.0599 with S. aureus Newman, 0.183 in the experiment on S. pneumoniae D39V, 0.0605 in the experiment on B. subtilis 168 and 0.0495 with S. aureus DSM 20231.
In the case of `N#CC(C#N)=NNc1cccc(Cl)c1` [CCCP] + COc1ccc(C[C@H](N)C(=O)N[C@H]2[C@@H](O)[C@H](n3cnc4c(N(C)C)ncnc43)O[C@@H]2CO)cc1 [Puromycin], the Bliss interaction score in the experiment on S. aureus Newman was found to be 0.0515; with S. pneumoniae D39V, 0.0604; with B. subtilis 168, 0.0243; in the experiment with S. aureus DSM 20231, 0.0553.
Take `N#CC(C#N)=NNc1cccc(Cl)c1` [CCCP] + COc1cccc2c1C(=O)c1c(O)c3c(c(O)c1C2=O)C[C@@](O)(C(=O)CO)C[C@@H]3O[C@H]1C[C@H](N)[C@H](O)[C@H](C)O1 [Doxorubicin]: the Bliss interaction score in the experiment with S. aureus Newman was -0.0546; in the experiment with S. pneumoniae D39V, -0.0519; in the experiment on B. subtilis 168, -0.0695; in the experiment with S. aureus DSM 20231, 0.0424.
Consider `N#CC(C#N)=NNc1cccc(Cl)c1` [CCCP] + C[C@@H]1O[C@@H]1P(=O)(O)O [Fosfomycin], for which the Bliss interaction score with S. aureus Newman is 0.0906; in the experiment with S. pneumoniae D39V, 0.0604; in the experiment with B. subtilis 168 it was 0.0638; in the experiment on S. aureus DSM 20231, 0.0417.
The matching figures for `N#CC(C#N)=NNc1cccc(Cl)c1` [CCCP] + C[C@@H](O)[C@H]1C(=O)N2C(C(=O)O)=C(SCCNC=N)C[C@H]12 [Imipenem]: 0.0181, 0.0923, -0.0769 and 0.0449.
As for `N#CC(C#N)=NNc1cccc(Cl)c1` [CCCP] + C[C@H]1COc2c(N3CCN(C)CC3)c(F)cc3c(=O)c(C(=O)O)cn1c23 [Levofloxacin], the Bliss interaction score with S. aureus Newman was 0.0426; with S. pneumoniae D39V, 0.0909; with B. subtilis 168 it was 0.0457; in the experiment on S. aureus DSM 20231, -0.0231.
For `N#CC(C#N)=NNc1cccc(Cl)c1` [CCCP] + C[C@H]1c2cccc(O)c2C(=O)C2=C(O)[C@]3(O)C(=O)C(C(N)=O)=C(O)[C@@H](N(C)C)[C@@H]3[C@@H](O)[C@@H]21 [Doxycycline], the Bliss interaction score with S. aureus Newman was 0.0768; in the experiment with S. pneumoniae D39V it was 0.047; in the experiment on B. subtilis 168, -0.0353; in the experiment with S. aureus DSM 20231 it was -0.0215.
